Results reported in US20200068887A1, “TREATMENT FOR REMOVING ECTOPARASITES FROM FISH” (priority 2016, published 2020).
Values joined by “and” are separate entries in the source; they are usually repeats but may differ in a detail not shown here. Equal values may be shown once.

Key:
sea lice = assay: Comparison on isolated sea lice (in vitro bath exposure); details: registered approx. 20 h after end of exposure
Experimental: Both pre-adult and adult stages (mobile stages) of both sexes were used, and they were equally distributed among groups. The sea lice were exposed to imidacloprid for 60 minutes, azamethiphos for 60 minutes and deltamethrin for 30 minutes in one litre baths at a range of concentrations (Tables 6, 7 and 8). The sea lice were transferred to clean aerated seawater after treatment. The temperature of the seawater during the experiment was 12° C., but during exposure the temperature raised to approx. 14° C. in regimes exposed for 60 min. (imidacloprid and azamethiphos) and to 13° C. for the regime exposed in 30 minutes (deltamethrin).
The numbers of live and immobilised (including killed) lice in each regime were registered approximately 20 h after end of exposure. Each louse was individually investigated.

salmon louse = assay: Bath treatment of lice-infected Atlantic salmon, percent lice removed; assay type: in vivo; details: duplicate
Experimental: To determine the concentration- and time-dependence of imidacloprid treatment in vivo, Atlantic salmon (average of 320.9 g) were challenged with imidacloprid in seawater (32.5%0 salinity) at 12° C. The water level in the tank was lowered and aeration was employed during administration of the active. The salmon louse copepodid culture was counted and adjusted to obtain a target level of around 40 copepodids per fish in the challenge tank at each challenge time point.
Salmon lice on the fish were counted using standard methods. Only lice on the fish's outer surface, not including gills and oral/buccal cavities, were investigated.
Numbers of dissociated lice in tank water or attached to the tank walls were recorded. Lice in the tank water were collected and assessed for ability to attach by suction to a smooth plastic surface immediately after treatment and again after 30-60 minutes (to assess possible revival). Live and viable lice were also collected from the mock-treated control groups for reference and held in revival chambers for the same period of time to assess the system.
The test solutions of the active were prepared (added and homogenised with seawater) and administered to a treatment volume of 40 litres.
Three sea lice-infected fish from the holding tank were randomly gathered and carefully steered into a barrel forming an inner compartment (diameter=34.5-40 cm; height=54 cm) that was submerged in the tank and in which the base has been replaced with a plastic mesh screen with 9 mm^2 square holes.
The fish were transferred to the inner compartment within 3 minutes of each test start. The inner compartment was suspended/submerged in the holding tank pending treatment. Treatments and mock treatments were implemented by draining the inner compartment with fish and transferring it to a barrel containing the test solution. Treatments/mock treatments were performed in static water with aeration/oxygenation. Aeration was adjusted to set the oxygen saturation to 70-100%.
To terminate the treatment, the inner compartment with treated fish was lifted to the surface and drained, then fish were transferred directly and without water to a second basin with a lethal overdose of anaesthetic and left until dead. All lice remaining on these fish and lice that fell off in the anaesthetic bath were recorded.
Exposure times with imidacloprid ranged from 3 to 60 minutes, and doses ranged from 20 ppm to 200 ppm.
Negative control groups at 3- and 60 minutes were duplicated. Superscript numbers denote the total number of lice on the 3 fish in each test.
By way of comparison, fish infected with sea lice from the same sources were treated with azamethiphos at 0.1 mg/l and deltamethrin at 0.2 μ/l for 30 minutes, per the recommended dosage regimes. Treatments were carried out under similar conditions as those treated with imidacloprid. A mock-treatment control was also administered. Each treatment condition was administered in duplicate.
Superscript numbers denote the total number of lice on the 3 fish in each test.

[1] = azamethiphos 5 ppm, 60 min exposure
[2] = azamethiphos 10 ppm, 60 min exposure
[3] = azamethiphos 15 ppm, 60 min exposure
[4] = azamethiphos 20 ppm, 60 min exposure
[5] = deltamethrin 5 ppm, 30 min exposure
[6] = deltamethrin 15 ppm, 30 min exposure
[7] = deltamethrin 20 ppm, 30 min exposure
[8] = deltamethrin 30 ppm, 30 min exposure

COP(=O)(OC)SCn1c(=O)oc2cc(Cl)cnc21 [azamethiphos]
% effect (sea lice; [1]): 0%
Immobilised (sea lice; [1]): 0
Live (sea lice; [1]): 10
% effect (sea lice; [2]): 10%
Immobilised (sea lice; [2]): 1
Live (sea lice; [2]): 9
% effect (sea lice; [3]): 0%
Immobilised (sea lice; [3]): 0
Live (sea lice; [3]): 10
% effect (sea lice; [4]): 10% and 20%
Immobilised (sea lice; [4]): 1 and 2
Live (sea lice; [4]): 9 and 8
Live (sea lice; azamethiphos 30 ppm, 60 min exposure): 9 and 6
% Removal (salmon louse; azamethiphos at 0.1 mg/l for 30 minutes, 52 and 33 lice on 3 fish): 3.0^33% and 3.8^52%

CC1(C)[C@H](C(=O)O[C@H](C#N)c2cccc(Oc3ccccc3)c2)[C@@H]1C=C(Br)Br [deltamethrin]
% effect (sea lice; [5]): 0%
Immobilised (sea lice; [5]): 0
Live (sea lice; [5]): 10
Live (sea lice; deltamethrin 10 ppm, 30 min exposure): 9 and 10
% effect (sea lice; [6]): 20% and 10%
Immobilised (sea lice; [6]): 2 and 1
Live (sea lice; [6]): 8 and 9
% effect (sea lice; [7]): 20% and 10%
Immobilised (sea lice; [7]): 2 and 1
Live (sea lice; [7]): 8 and 9
Immobilised (sea lice; [8]): 1 and 2
Live (sea lice; [8]): 10 and 8
% Removal (salmon louse; deltamethrin at 0.2 μ/l for 30 minutes, 37 lice on 3 fish each): 0^37%
